Test results reported in PubChem BioAssay (NCI).
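Method: 48-hour compound exposure of cells in 96-well plates, five concentrations, linear interpolation of endpoints. TGI: total growth inhibition.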

Columns and labels:
Assay in all cases: NCI-60 cell line screen, 48 h
[1] = tested on: M14 melanoma
[2] = tested on: OVCAR-5 ovarian
[3] = tested on: HL-60(TB) leukemia
[4] = tested on: OVCAR-8 ovarian
[5] = tested on: HOP-62 NSCLC
[6] = tested on: BT-549 breast
[7] = tested on: NCI-H522 lung
[8] = tested on: SR leukemia
[9] = tested on: A549 NSCLC
[10] = tested on: SNB-75 CNS
[11] = tested on: NCI-H226 lung
[12] = tested on: T-47D breast
[13] = tested on: HT29 colon
[14] = tested on: TK-10 renal
[15] = tested on: IGROV1 ovarian
[16] = tested on: CAKI-1 renal
[17] = tested on: EKVX NSCLC
[18] = tested on: HCT-15 colon
[19] = tested on: NCI-H23 lung
[20] = tested on: MDA-N
[21] = tested on: SK-OV-3 ovarian
[22] = tested on: HS 578T breast
[23] = tested on: UO-31 renal
[24] = tested on: RXF 393 renal
[25] = tested on: CCRF-CEM leukemia
[26] = tested on: SK-MEL-28 melanoma
[27] = tested on: UACC-257 melanoma
[28] = tested on: ACHN renal
[29] = tested on: U251 CNS
[30] = tested on: 786-0 renal
[31] = tested on: UACC-62 melanoma
[32] = tested on: DU-145 prostate
[33] = tested on: MALME-3M melanoma
[34] = tested on: SK-MEL-5 melanoma
[35] = tested on: NCI/ADR-RES ovarian
[36] = tested on: MOLT-4 leukemia
[37] = tested on: RPMI-8226 leukemia
[38] = tested on: OVCAR-4 ovarian
[39] = tested on: OVCAR-3 ovarian
[40] = tested on: MCF7 breast
[41] = tested on: SF-295 CNS
[42] = tested on: LOX IMVI melanoma
[43] = tested on: SN12C renal
[44] = tested on: COLO 205 colon
[45] = tested on: SF-539 CNS
[46] = tested on: K-562 leukemia
[47] = tested on: SW-620 colon
[48] = tested on: NCI-H460 lung
[49] = tested on: A498 renal
[50] = tested on: MDA-MB-435
[51] = tested on: MDA-MB-231 breast
[52] = tested on: SNB-19 CNS
[53] = tested on: HOP-92 NSCLC
[54] = tested on: HCT-116 colon
[55] = tested on: PC-3 prostate
[56] = tested on: KM12 colon
[57] = tested on: SF-268 CNS
[58] = tested on: HCC-2998 colon

With `C/C(=C/CC[C@](C)(OC1OC(CO)C(O)C(O)C1O)[C@H]1CC[C@]2(C)[C@@H]1CC[C@@H]1[C@@]3(C)CC[C@H](O)C(C)(C)[C@@H]3C[C@H](O)[C@]12C)CO` (some centres not stated) the TGI [1] was > 100 µM, the TGI [2] was > 100 µM and the TGI [3] was 49.9 µM. For the same compound, the TGI [4] was > 100 µM, the TGI [5] was 69.9 µM and the TGI [6] was 31.2 µM. For the same compound, the TGI [7] was 42.7 µM, the TGI [8] was > 100 µM and the TGI [9] was > 100 µM. The TGI [10] was 56 µM, the TGI [11] was 60.4 µM and the TGI [12] was 60.4 µM. For the same compound, the TGI [13] was 45.1 µM, the TGI [14] was > 100 µM and the TGI [15] was > 100 µM. The TGI [16] was 81.6 µM, the TGI [17] was > 100 µM and the TGI [18] was 57.5 µM. The TGI [19] was > 100 µM, the TGI [20] was 56.6 µM and the TGI [21] was > 100 µM. The TGI [22] was 55.3 µM, the TGI [23] was > 100 µM and the TGI [24] was 19.4 µM. It also gave a TGI [25] of 95.9 µM, a TGI [26] of 38.5 µM and a TGI [27] of 55.3 µM. The TGI [28] was > 100 µM, the TGI [29] was 28.5 µM and the TGI [30] was 61.2 µM. For the same compound, the TGI [31] was 58.3 µM, the TGI [32] was > 100 µM and the TGI [33] was 56.5 µM. The TGI [34] was 39.8 µM, the TGI [35] was > 100 µM and the TGI [36] was 53.6 µM. The TGI [37] was 28.3 µM, the TGI [38] was > 100 µM and the TGI [39] was 79.7 µM. For the same compound, the TGI [40] was > 100 µM, the TGI [41] was 35.1 µM and the TGI [42] was 33.9 µM. The TGI [43] was 66.4 µM, the TGI [44] was 41 µM and the TGI [45] was 35.6 µM. It also gave a TGI [46] of 62.2 µM, a TGI [47] of 62.4 µM and a TGI [48] of 48.9 µM. For the same compound, the TGI [49] was > 100 µM, the TGI [50] was > 100 µM and the TGI [51] was 91.5 µM. For the same compound, the TGI [52] was 56.5 µM, the TGI [53] was > 100 µM and the TGI [54] was 42.7 µM. It also gave a TGI [55] of 98.2 µM, a TGI [56] of 47.8 µM and a TGI [57] of 90.7 µM.

For `Cc1ccc(C2=Nn3c(nc4sc(-c5ccccc5)cc4c3=O)SC2)cc1`, the TGI [2] was > 100 µM, the TGI [3] was > 100 µM and the TGI [4] was > 100 µM. For the same compound, the TGI [5] was > 100 µM, the TGI [6] was > 100 µM and the TGI [7] was > 100 µM. For the same compound, the TGI [8] was > 100 µM, the TGI [9] was > 100 µM and the TGI [10] was > 100 µM. For the same compound, the TGI [11] was > 100 µM, the TGI [12] was > 100 µM and the TGI [13] was > 100 µM. The TGI [14] was > 100 µM, the TGI [15] was > 100 µM and the TGI [16] was > 100 µM. For the same compound, the TGI [17] was > 100 µM, the TGI [18] was > 100 µM and the TGI [19] was > 100 µM. The TGI [20] was > 100 µM, the TGI [21] was > 100 µM and the TGI [22] was > 100 µM. The TGI [23] was > 100 µM, the TGI [25] was > 100 µM and the TGI [26] was > 100 µM. The TGI [27] was > 100 µM, the TGI [58] was > 100 µM and the TGI [28] was > 100 µM. The TGI [29] was > 100 µM, the TGI [30] was > 100 µM and the TGI [31] was > 100 µM. The TGI [32] was > 100 µM, the TGI [33] was > 100 µM and the TGI [34] was > 100 µM. The TGI [35] was > 100 µM, the TGI [36] was > 100 µM and the TGI [37] was > 100 µM. The TGI [38] was > 100 µM, the TGI [39] was > 100 µM and the TGI [40] was > 100 µM. The TGI [41] was > 100 µM, the TGI [42] was > 100 µM and the TGI [43] was > 100 µM. The TGI [44] was > 100 µM, the TGI [45] was > 100 µM and the TGI [46] was > 100 µM. The TGI [47] was > 100 µM, the TGI [48] was > 100 µM and the TGI [49] was > 100 µM. The TGI [50] was > 100 µM, the TGI [51] was > 100 µM and the TGI [53] was > 100 µM. The TGI [54] was > 100 µM, the TGI [55] was > 100 µM and the TGI [56] was > 100 µM. For the same compound, the TGI [57] was > 100 µM.
